Data on eight compounds can be found in paper PMC11997890, “In Vivo and In Vitro Pharmacokinetic Studies of a Dual Topoisomerase I/II Inhibitor” (ACS Pharmacology & Translational Science, 2025).

The structures appear in SMILES notation.

For data set [1] the following is noted: cited from earlier work; for CL / Oral bioavailability / Protein binding / V ss / t 1/2: literature values, ref numbers not given.
The next data set deals with OvCar8 spheroids. Put plainly: 3D spheroid viability (RealTime-Glo). Particulars: OvCar8 3D spheroids, 48 h. The format is cell-based, human. As to the method: Tumor complexity is represented more realistically in 3D spheroid models than in 2D monolayer models.
OvCar8 cells (8000/well) were seeded into an Ultra-Low-Attachment plate (Corning #4520) and grown for 96 h. Then, spheroids were treated with the drugs for 48 h. Cell cytotoxicity was assessed using the CellTox Green Cytotoxicity Assay (Promega #G8731) 48 h after treatment with NYONE ([…], 485Ex/520Em). Filters: BFEx/GreenEm (530/43 nm); BlueEx (475/28 nm)/GreenEm (530/43 nm). Viability and apoptosis were determined by RealTime-Glo (460Em) (Promega #G9711) and caspase-Glo 3/7 (565Em) (Promega #G8090) according to the manufacturer’s instructions using a microplate reader (Spark, Tecan). Relative caspase activity: caspase activity divided by the viability (normalized to control). For live-dead staining, cells were grown and treated as described above. Then, 80% of the medium was removed and replaced with propidium iodide (PI) (15 μM), calcein-AM (0.2 μM), and Hoechst 33342 (1.8 μM) in medium for 3 h and imaged by NYONE ([…]). Filters: BFEx/GreenEm(530/43 nm); Hoechst 33342: UVEx (377/50 nm)/BlueEm (452/45 nm); calcein-AM: BlueEx (475/28 nm)/GreenEm (530/43 nm); propidium iodide: LimeEx(562/40 nm)/RedEm(628/32 nm). All experiments were performed in biological triplicates. PBS was used as the negative control, and cisplatin and P8-D6 as the positive control.

A further data set has as its system CYP3A4. More on the design: method as in not given. Particulars: metabolized by CYP3A4; ref not given; cited from earlier work.
On the set-up of data set [2]: method as in not given. Particulars: human liver microsomes; ref not given; cited from earlier work.

Turning to `CC[C@@]1(O)C(=O)OCc2c1cc1n(c2=O)Cc2c-1nc1cc3c(cc1c2CN1CCN(C)CC1)OCCO3` [lurtotecan], in data set [1], the CL was 60 L/(h m^2), the Oral bioavailability was 11.3 ± 5.2%, the Protein binding is given as 90% and the V ss is recorded as 190 L/m^2. Besides, in data set [1], the “t 1/2” value was 3.7 h.
Turning to `COc1cccc2c1C(=O)c1c(O)c3c(c(O)c1C2=O)C[C@@](O)(C(=O)CO)C[C@@H]3O[C@H]1C[C@H](N)[C@H](O)[C@H](C)O1` [doxorubicin], the drug eliminated in data set [1] (after 7 days, ref not given) is 25–45%. In data set [1], the CL was 12–34 L/(h m^2), the Oral bioavailability was 5%, the Protein binding was 50–85% and the V ss is listed as 809–1214 L/m^2. The “t 1/2” value in data set [1] is 17.3 to 26 h.
The term IC50 denotes the point on the concentration scale where inhibition reaches its midpoint. Higher therefore signals weaker potency. In the data set on OvCar8 spheroids, `N.N.[Cl][Pt][Cl]` [cisplatin, reference compound] returned an IC50 of 13.5 µM.
As for `O=C(c1cc(Cc2n[nH]c(=O)c3ccccc23)ccc1F)N1CCN(C(=O)C2CC2)CC1` [Olaparib, olaparib], the “rate of three major metabolites” value in the data set on CYP3A4 is listed as 8–12%.
On to `CC[C@@]1(O)C(=O)OCc2c1cc1n(c2=O)Cc2cc3c(CN(C)C)c(O)ccc3nc2-1` [topotecan], for which the “mean ratio of N-demethylated metabolite to topotecan” value in data set [2] is “approximately 3%”. In data set [1], the CL is on record as 14–34 L/(h m^2), the Oral bioavailability was 32–44%, the Protein binding is given as 7–35% and the “t 1/2” value is 3.1 to 4 h.
With `COc1cc([C@@H]2c3cc4c(cc3[C@@H](O[C@@H]3O[C@@H]5CO[C@@H](C)O[C@H]5[C@H](O)[C@H]3O)[C@H]3COC(=O)[C@H]23)OCO4)cc(OC)c1O` [etoposide], in data set [1], the CL is recorded as 1–2 L/(h m^2), the Oral bioavailability was 50 (40–75) %, the Protein binding is listed as 94–95% and the V ss is on record as 7.1 (5–17) L/m^2. Also, the “t 1/2” value in data set [1] was 6.4 h.
On to `COc1cc2ncnc(Nc3ccc(F)c(Cl)c3)c2cc1OCCCN1CCOCC1` [gefitinib], for which, in data set [1], the Protein binding is given as > 97%.
For the compound `CCc1c2c(nc3ccc(OC(=O)N4CCC(N5CCCCC5)CC4)cc13)-c1cc3c(c(=O)n1C2)COC(=O)[C@]3(O)CC` [irinotecan], the Protein binding in data set [1] is reported as 65%.
